Results taken from PMC9234961 (Journal of Medicinal Chemistry, 2022).
Like-named read-outs stand apart in the source and are kept apart here.

What was measured:
kinases (468) [1] = molecular target: kinases (468) (Homo sapiens, UniProt O00141); conditions: kinase SGK (Entrez SGK1); compound concentration 1000 nM
kinases (468) [2] = molecular target: kinases (468) (Homo sapiens, UniProt O14936); conditions: CASK; 1000 nM
kinases (468) [3] = molecular target: kinases (468) (Homo sapiens, UniProt O75582); conditions: compound concentration 1000 nM
kinases (468) [4] = molecular target: kinases (468) (Homo sapiens, UniProt O94768); conditions: DRAK2 (STK17B); 1000 nM
kinases (468) [5] = molecular target: kinases (468) (Homo sapiens, UniProt O96013); conditions: PAK4; 1000 nM
kinases (468) [6] = molecular target: kinases (468) (Homo sapiens, UniProt P00519, M351T); conditions: ABL1(M351T)-phosphorylated; 1000 nM
kinases (468) [7] = molecular target: kinases (468) (Homo sapiens, UniProt P00533, G719C); conditions: EGFR(G719C); 1000 nM
kinases (468) [8] = molecular target: kinases (468) (Homo sapiens, UniProt P08581, Y1235D); conditions: MET(Y1235D); 1000 nM
kinases (468) [9] = molecular target: kinases (468) (Homo sapiens, UniProt P10721, D816V); conditions: KIT(D816V); 1000 nM
kinases (468) [10] = molecular target: kinases (468) (Homo sapiens, UniProt P10721, L576P); conditions: KIT(L576P); 1000 nM
kinases (468) [11] = molecular target: kinases (468) (Homo sapiens, UniProt P11309); conditions: PIM1; 1000 nM
kinases (468) [12] = molecular target: kinases (468) (Homo sapiens, UniProt P16591); conditions: FER; 1000 nM
kinases (468) [13] = molecular target: kinases (468) (Homo sapiens, UniProt P31152); conditions: ERK4 (MAPK4); 1000 nM
kinases (468) [14] = molecular target: kinases (468) (Homo sapiens, UniProt P33981); conditions: kinase TTK (Entrez TTK); compound concentration 1000 nM
kinases (468) [15] = molecular target: kinases (468) (Homo sapiens, UniProt P42680); conditions: kinase TEC (Entrez TEC); compound concentration 1000 nM
kinases (468) [16] = molecular target: kinases (468) (Homo sapiens, UniProt P48736); conditions: PIK3CG; 1000 nM
kinases (468) [17] = molecular target: kinases (468) (Homo sapiens, UniProt P57078); conditions: kinase RIPK4 (Entrez RIPK4); compound concentration 1000 nM
kinases (468) [18] = molecular target: kinases (468) (Homo sapiens, UniProt Q07912); conditions: kinase TNK2 (Entrez TNK2); compound concentration 1000 nM
kinases (468) [19] = molecular target: kinases (468) (Homo sapiens, UniProt Q13873); conditions: BMPR2; 1000 nM
kinases (468) [20] = molecular target: kinases (468) (Homo sapiens, UniProt Q32MK0); conditions: MLCK (MYLK3); 1000 nM
kinases (468) [21] = molecular target: kinases (468) (Homo sapiens, UniProt Q5S007, G2019S); conditions: LRRK2(G2019S); 1000 nM
kinases (468) [22] = molecular target: kinases (468) (Homo sapiens, UniProt Q8IW41); conditions: MAPKAPK5; 1000 nM
kinases (468) [23] = molecular target: kinases (468) (Homo sapiens, UniProt Q8IWQ3); conditions: BRSK2; 1000 nM
kinases (468) [24] = molecular target: kinases (468) (Homo sapiens, UniProt Q92918); conditions: HPK1 (MAP4K1); 1000 nM
kinases (468) [25] = molecular target: kinases (468) (Homo sapiens, UniProt Q96BR1); conditions: kinase SGK3 (Entrez SGK3); compound concentration 1000 nM
kinases (468) [26] = molecular target: kinases (468) (Homo sapiens, UniProt Q9BYP7); conditions: kinase WNK3 (Entrez WNK3); compound concentration 1000 nM
kinases (468) [27] = molecular target: kinases (468) (Homo sapiens, UniProt Q9HBH9); conditions: MKNK2; 1000 nM
kinases (468) [28] = molecular target: kinases (468) (Homo sapiens, UniProt Q9NQU5); conditions: PAK6; 1000 nM
kinases (468) [29] = molecular target: kinases (468) (Homo sapiens, UniProt Q9NSY1); conditions: BIKE (BMP2K); 1000 nM
kinases (468) [30] = molecular target: kinases (468) (Homo sapiens, UniProt Q9UBE8); conditions: NLK; 1000 nM
kinases (468) [31] = molecular target: kinases (468) (Homo sapiens, UniProt Q9UF33); conditions: EPHA6; 1000 nM
kinases (468) [32] = molecular target: kinases (468) (Homo sapiens, UniProt Q9UQM7); conditions: CAMK2A; 1000 nM
kinases (468) [33] = molecular target: kinases (468) (Homo sapiens, UniProt Q9Y243); conditions: AKT3; 1000 nM
kinases (468) [34] = molecular target: kinases (468) (Homo sapiens, UniProt Q9Y2K2); conditions: QSK (KIAA0999); 1000 nM

Chain of kinases (468) (Homo sapiens, UniProt O75582) (O75582 whole entry): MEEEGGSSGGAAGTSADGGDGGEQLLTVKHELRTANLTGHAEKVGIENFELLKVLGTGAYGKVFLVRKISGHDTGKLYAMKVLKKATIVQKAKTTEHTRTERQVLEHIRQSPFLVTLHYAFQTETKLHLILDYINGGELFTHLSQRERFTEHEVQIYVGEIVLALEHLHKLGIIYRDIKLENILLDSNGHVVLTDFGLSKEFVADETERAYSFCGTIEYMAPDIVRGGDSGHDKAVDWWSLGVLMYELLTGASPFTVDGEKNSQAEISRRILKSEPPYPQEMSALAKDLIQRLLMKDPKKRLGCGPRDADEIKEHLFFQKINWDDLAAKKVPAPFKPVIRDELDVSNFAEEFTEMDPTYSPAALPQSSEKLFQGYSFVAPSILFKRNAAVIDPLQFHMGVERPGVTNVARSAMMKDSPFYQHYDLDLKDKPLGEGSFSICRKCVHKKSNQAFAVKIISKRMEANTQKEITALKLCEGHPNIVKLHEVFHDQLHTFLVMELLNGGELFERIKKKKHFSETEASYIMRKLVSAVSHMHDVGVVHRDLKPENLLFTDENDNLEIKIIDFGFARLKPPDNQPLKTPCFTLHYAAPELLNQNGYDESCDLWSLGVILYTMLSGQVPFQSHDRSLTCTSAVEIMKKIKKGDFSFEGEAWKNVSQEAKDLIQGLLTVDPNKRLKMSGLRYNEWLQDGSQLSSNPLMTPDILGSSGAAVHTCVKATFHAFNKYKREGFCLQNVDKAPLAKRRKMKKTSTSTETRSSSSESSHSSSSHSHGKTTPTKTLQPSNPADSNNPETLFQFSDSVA
Chain of kinases (468) (Homo sapiens, UniProt O14936) (O14936 whole entry): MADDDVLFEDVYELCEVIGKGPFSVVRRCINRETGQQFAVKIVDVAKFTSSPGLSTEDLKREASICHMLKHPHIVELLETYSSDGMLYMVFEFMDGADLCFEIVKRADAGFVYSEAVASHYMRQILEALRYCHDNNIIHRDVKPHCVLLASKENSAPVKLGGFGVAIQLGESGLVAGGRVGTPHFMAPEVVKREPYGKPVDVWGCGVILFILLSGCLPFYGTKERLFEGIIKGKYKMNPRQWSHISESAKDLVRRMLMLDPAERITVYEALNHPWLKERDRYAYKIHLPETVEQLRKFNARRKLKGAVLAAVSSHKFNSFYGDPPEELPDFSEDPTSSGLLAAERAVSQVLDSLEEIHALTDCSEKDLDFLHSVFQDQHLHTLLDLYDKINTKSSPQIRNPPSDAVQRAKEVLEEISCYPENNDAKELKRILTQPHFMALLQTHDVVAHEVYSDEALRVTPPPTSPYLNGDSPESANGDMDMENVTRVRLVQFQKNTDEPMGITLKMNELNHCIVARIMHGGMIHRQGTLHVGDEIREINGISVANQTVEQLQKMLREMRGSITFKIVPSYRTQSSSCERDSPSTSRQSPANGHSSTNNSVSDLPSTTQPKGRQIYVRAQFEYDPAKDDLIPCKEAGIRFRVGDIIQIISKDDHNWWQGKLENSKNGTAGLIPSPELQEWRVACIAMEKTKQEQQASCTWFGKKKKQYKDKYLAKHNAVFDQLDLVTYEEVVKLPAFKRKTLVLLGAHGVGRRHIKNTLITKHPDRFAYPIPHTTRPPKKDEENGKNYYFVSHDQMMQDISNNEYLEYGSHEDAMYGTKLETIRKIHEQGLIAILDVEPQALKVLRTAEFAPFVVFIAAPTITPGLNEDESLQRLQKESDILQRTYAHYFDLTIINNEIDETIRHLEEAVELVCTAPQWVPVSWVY
Chain of kinases (468) (Homo sapiens, UniProt Q96BR1) (Q96BR1 whole entry): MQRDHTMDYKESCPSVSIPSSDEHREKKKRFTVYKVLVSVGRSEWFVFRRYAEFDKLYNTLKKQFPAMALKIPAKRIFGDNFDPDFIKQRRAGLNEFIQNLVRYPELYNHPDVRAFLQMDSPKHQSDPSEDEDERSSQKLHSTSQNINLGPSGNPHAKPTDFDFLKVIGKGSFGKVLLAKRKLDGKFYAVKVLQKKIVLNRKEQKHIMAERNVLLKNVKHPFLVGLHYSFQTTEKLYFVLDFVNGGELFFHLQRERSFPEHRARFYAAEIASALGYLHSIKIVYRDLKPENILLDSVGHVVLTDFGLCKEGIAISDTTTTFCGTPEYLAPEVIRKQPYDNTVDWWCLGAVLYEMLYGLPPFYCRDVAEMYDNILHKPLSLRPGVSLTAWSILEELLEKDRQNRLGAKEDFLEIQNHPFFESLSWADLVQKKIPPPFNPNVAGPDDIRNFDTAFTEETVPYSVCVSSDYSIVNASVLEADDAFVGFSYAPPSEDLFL
Chain of kinases (468) (Homo sapiens, UniProt O96013) (O96013 whole entry): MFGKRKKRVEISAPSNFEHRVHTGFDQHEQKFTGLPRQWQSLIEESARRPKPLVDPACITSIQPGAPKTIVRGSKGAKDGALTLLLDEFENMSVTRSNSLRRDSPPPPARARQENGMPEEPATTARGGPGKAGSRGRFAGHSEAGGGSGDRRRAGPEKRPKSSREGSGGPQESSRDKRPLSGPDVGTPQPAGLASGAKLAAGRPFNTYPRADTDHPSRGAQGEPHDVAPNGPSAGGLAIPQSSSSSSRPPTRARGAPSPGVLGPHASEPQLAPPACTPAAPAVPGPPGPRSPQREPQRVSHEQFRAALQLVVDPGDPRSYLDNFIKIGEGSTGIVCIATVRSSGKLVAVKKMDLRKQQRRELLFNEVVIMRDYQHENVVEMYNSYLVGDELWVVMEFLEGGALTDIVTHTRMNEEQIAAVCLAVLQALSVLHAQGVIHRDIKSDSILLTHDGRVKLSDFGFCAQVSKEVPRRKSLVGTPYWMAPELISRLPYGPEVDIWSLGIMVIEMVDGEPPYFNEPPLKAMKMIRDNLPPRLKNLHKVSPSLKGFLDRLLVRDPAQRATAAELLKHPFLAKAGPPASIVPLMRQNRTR
Chain of kinases (468) (Homo sapiens, UniProt Q07912) (Q07912 whole entry): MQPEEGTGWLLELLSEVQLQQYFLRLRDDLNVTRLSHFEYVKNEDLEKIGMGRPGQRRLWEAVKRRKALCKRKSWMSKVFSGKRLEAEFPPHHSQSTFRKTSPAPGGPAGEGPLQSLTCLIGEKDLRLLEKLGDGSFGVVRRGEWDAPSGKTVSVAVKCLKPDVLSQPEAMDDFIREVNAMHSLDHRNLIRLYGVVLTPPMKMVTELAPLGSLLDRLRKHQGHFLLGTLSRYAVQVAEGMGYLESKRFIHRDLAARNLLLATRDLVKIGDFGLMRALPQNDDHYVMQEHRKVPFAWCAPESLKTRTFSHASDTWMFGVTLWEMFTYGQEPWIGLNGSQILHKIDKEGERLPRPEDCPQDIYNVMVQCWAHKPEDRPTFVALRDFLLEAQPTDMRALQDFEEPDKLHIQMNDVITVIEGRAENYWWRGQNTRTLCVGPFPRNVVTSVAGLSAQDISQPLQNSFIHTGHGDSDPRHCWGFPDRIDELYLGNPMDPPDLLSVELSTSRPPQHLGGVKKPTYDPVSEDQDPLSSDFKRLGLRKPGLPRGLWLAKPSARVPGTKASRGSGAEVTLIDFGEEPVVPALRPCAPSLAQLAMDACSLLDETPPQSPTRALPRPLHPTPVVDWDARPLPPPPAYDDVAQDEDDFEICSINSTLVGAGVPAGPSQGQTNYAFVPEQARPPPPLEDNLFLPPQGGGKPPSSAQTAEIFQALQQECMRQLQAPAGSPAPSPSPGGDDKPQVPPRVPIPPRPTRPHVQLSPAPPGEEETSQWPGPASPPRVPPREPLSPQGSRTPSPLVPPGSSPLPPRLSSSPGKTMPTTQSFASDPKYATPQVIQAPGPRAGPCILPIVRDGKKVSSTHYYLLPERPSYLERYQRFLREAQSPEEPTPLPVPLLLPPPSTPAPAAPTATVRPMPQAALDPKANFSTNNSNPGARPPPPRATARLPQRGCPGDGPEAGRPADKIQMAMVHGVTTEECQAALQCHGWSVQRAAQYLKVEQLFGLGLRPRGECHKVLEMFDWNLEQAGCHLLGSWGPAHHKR
Chain of kinases (468) (Homo sapiens, UniProt Q9NQU5) (Q9NQU5 whole entry): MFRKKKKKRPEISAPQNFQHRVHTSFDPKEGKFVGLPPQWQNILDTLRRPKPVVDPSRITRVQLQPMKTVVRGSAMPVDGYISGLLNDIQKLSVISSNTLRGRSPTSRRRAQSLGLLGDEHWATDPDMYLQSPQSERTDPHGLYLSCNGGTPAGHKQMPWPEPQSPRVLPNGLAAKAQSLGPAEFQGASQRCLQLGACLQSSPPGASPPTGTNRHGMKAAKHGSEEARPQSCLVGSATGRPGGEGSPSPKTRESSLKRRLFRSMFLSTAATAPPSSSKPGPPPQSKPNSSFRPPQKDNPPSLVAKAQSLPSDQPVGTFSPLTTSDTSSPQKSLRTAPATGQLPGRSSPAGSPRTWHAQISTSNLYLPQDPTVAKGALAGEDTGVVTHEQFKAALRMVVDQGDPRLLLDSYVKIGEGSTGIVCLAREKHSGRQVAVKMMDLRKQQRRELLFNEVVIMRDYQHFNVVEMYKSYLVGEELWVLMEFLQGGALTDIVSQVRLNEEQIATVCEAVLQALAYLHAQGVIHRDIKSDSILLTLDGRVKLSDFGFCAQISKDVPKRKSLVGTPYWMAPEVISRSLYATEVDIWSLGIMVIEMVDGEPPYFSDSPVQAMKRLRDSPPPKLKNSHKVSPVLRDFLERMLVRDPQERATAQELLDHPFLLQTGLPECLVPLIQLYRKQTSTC
Chain of kinases (468) (Homo sapiens, UniProt O94768) (O94768 whole entry): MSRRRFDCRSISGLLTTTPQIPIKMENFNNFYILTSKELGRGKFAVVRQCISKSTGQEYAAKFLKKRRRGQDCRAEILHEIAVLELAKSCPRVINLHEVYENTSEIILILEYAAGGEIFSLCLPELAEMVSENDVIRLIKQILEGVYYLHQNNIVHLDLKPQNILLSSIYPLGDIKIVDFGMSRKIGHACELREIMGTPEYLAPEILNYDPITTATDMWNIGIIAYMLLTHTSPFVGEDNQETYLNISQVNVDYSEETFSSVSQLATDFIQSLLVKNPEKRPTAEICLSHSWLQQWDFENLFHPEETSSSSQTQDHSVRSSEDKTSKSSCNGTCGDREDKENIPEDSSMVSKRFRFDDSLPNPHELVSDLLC

In the case of `C[C@H]1C[C@@H](O)CN(c2ncc(Cl)c(Nc3ccc4c(c3)c3c(c(=O)n4C)OCC(F)(F)[C@H](C4CC4)N3)n2)C1` [CCT373566_9A], the “Percent Control” value (kinases (468) [1]) is reported as 98%, the “Percent Control” value (kinases (468) [2]) is reported as 92% and the “Percent Control” value (kinases (468) [3]; kinase RPS6KA5(Kin.Dom.1-N-terminal) (Entrez RPS6KA5)) is reported as 93%. The “Percent Control” value (kinases (468) [3]; kinase RPS6KA5(Kin.Dom.2-C-terminal) (Entrez RPS6KA5)) was 96%, the “Percent Control” value (kinases (468) [4]) was 98% and the “Percent Control” value (kinases (468) [5]) was 100%. For the same molecule, the “Percent Control” value (kinases (468) [6]) was 90%, the “Percent Control” value (kinases (468) [7]) was 94% and the “Percent Control” value (kinases (468) [8]) was 99%. The “Percent Control” value (kinases (468) [9]) was 100%, the “Percent Control” value (kinases (468) [10]) was 100% and the “Percent Control” value (kinases (468) [11]) was 100%. The “Percent Control” value (kinases (468) [12]) was 100%, the “Percent Control” value (kinases (468) [13]) was 100% and the “Percent Control” value (kinases (468) [14]) was 91%. For the same molecule, the “Percent Control” value (kinases (468) [15]) was 94%, the “Percent Control” value (kinases (468) [16]) was 98% and the “Percent Control” value (kinases (468) [17]) was 100%. For the same molecule, the “Percent Control” value (kinases (468) [18]) was 93%, the “Percent Control” value (kinases (468) [19]) was 100% and the “Percent Control” value (kinases (468) [20]) was 100%. For the same molecule, the “Percent Control” value (kinases (468) [21]) was 12%, the “Percent Control” value (kinases (468) [22]) was 100% and the “Percent Control” value (kinases (468) [23]) was 100%. For the same molecule, the “Percent Control” value (kinases (468) [24]) was 82%, the “Percent Control” value (kinases (468) [25]) was 99% and the “Percent Control” value (kinases (468) [26]) was 96%. For the same molecule, the “Percent Control” value (kinases (468) [27]) was 100%, the “Percent Control” value (kinases (468) [28]) was 93% and the “Percent Control” value (kinases (468) [29]) was 100%. The “Percent Control” value (kinases (468) [30]) was 100%, the “Percent Control” value (kinases (468) [31]) was 100% and the “Percent Control” value (kinases (468) [32]) was 79%. The “Percent Control” value (kinases (468) [33]) was 93% and the “Percent Control” value (kinases (468) [34]) was 90%.
